# Target: T1, Siglec-7 (Homo sapiens, UniProt Q9Y286)
# T1 construct: gene SIGLEC7; recombinant Siglec-7-Fc soluble protein
# Test: concentration-independent native mass spectrometry (COIN-CaR-ESI-MS)
# Type: binding
# T1 sequence (Q9Y286 19-353 limits assumed): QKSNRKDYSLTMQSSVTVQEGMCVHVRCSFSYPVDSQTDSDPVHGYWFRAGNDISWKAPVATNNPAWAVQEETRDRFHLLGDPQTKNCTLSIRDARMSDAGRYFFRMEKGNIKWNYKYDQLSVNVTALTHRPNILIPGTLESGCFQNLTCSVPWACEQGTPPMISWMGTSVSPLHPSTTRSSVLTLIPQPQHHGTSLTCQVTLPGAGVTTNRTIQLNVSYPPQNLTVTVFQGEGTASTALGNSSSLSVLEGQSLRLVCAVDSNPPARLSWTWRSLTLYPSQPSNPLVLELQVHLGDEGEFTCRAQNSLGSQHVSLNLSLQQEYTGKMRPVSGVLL
row,Kd,Compound
1,115 ± 44 µM,"CC(=O)N[C@H]1[C@@H](OCCNC(=O)OCc2ccccc2)O[C@H](CO)[C@H](O)[C@@H]1O[C@@H]1O[C@H](CO)[C@H](O)[C@H](O[C@]2(C(=O)O)C[C@H](N=[N+]=[N-])[C@@H](NC(C)=O)[C@H]([C@H](O)[C@H](O)CO)O2)[C@H]1O [compound 13, 2-(N-benzyloxycarbonylamino)ethyl 5-acetamido-4-azido-3,4,5 trideoxy-D-glycero-α-D-galacto-nonulopyranosyl-(2–3)-[β-D-galactopyranosyl]-(1–3)-2 acetamido-2-deoxy-α-D-galactopyranoside]"
2,88 ± 31 µM,"CC(=O)N[C@H]1[C@@H](OCCNC(=O)OCc2ccccc2)O[C@H](CO)[C@H](O)[C@@H]1O[C@@H]1O[C@H](CO)[C@H](O)[C@H](O[C@]2(C(=O)O)C[C@H](O)[C@@H](NC(C)=O)[C@H]([C@H](O)[C@H](O)CO)O2)[C@H]1O [compound 14, 2-(N-benzyloxycarbonylamino)ethyl 5 acetamido-3,5-dideoxy-D-glycero-α-D-galacto-nonulopyranosyl-(2–3)-[(β-D-galactopyranosyl)]-(1–3)-2-acetamido-2-deoxy-α-D-galactopyranoside]"

# Source: publication PMC12038855, “Synthesis of 4-azido sialic acid for testing against Siglec-7 and in metabolic oligosaccharide engineering” (RSC Chemical Biology, 2025)
